Measured values from PubChem BioAssay AID1963959 (Molecular Pharmacology Branch, DTP, NCI, 2024).

System: T-47D spheroids with HUVEC/MSC, viability
Assay: Anticancer human tumor T-47D cell line growth inhibition [PI3K];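 further: spheroids exposed to agents for seven days before reading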;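 on viability, T/C: percent of DMSO vehicle control luminescence so 100% = untreated growth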
Settings: for viability, T/C: stronger effect = lower value
Procedure, shortened: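 We assembled tumor spheroids that included a stromal compartment of HUVEC and MSCs, then exposed them to targeted agents alone and together with PI3K pathway inhibitors. Concentration series descended by half-log from clinically achievable Cmax levels. Viability served as the endpoint.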

[1] = curve of first compound, second compound 0.00316 µM
[2] = curve of first compound, second compound 0.01 µM
[3] = curve of first compound, second compound 0.0316 µM
[4] = curve of first compound, second compound 0.1 µM
[5] = curve of first compound, second compound 0.316 µM
[6] = curve of first compound, second compound 1 µM
[7] = second compound 0.00316 µM, first compound 0.0316 µM
[8] = second compound 0.00316 µM, first compound 0.1 µM
[9] = second compound 0.00316 µM, first compound 0.316 µM
[10] = second compound 0.00316 µM, first compound 1 µM
[11] = second compound 0.00316 µM, first compound 3.16 µM
[12] = second compound 0.00316 µM, first compound 10 µM
[13] = second compound 0.01 µM, first compound 0.0316 µM
[14] = second compound 0.01 µM, first compound 0.1 µM
[15] = second compound 0.01 µM, first compound 0.316 µM
[16] = second compound 0.01 µM, first compound 1 µM
[17] = second compound 0.01 µM, first compound 3.16 µM
[18] = second compound 0.01 µM, first compound 10 µM
[19] = second compound 0.0316 µM, first compound 0.0316 µM
[20] = second compound 0.0316 µM, first compound 0.1 µM
[21] = second compound 0.0316 µM, first compound 0.316 µM
[22] = second compound 0.0316 µM, first compound 1 µM
[23] = second compound 0.0316 µM, first compound 3.16 µM
[24] = second compound 0.0316 µM, first compound 10 µM
[25] = second compound 0.1 µM, first compound 0.0316 µM
[26] = second compound 0.1 µM, first compound 0.1 µM
[27] = second compound 0.1 µM, first compound 0.316 µM
[28] = second compound 0.1 µM, first compound 1 µM
[29] = second compound 0.1 µM, first compound 3.16 µM
[30] = second compound 0.1 µM, first compound 10 µM
[31] = second compound 0.316 µM, first compound 0.0316 µM
[32] = second compound 0.316 µM, first compound 0.1 µM
[33] = second compound 0.316 µM, first compound 0.316 µM
[34] = second compound 0.316 µM, first compound 1 µM
[35] = second compound 0.316 µM, first compound 3.16 µM
[36] = second compound 0.316 µM, first compound 10 µM
[37] = second compound 1 µM, first compound 0.0316 µM
[38] = second compound 1 µM, first compound 0.1 µM
[39] = second compound 1 µM, first compound 0.316 µM
[40] = second compound 1 µM, first compound 1 µM
[41] = second compound 1 µM, first compound 3.16 µM
[42] = second compound 1 µM, first compound 10 µM

## CCCS(=O)(=O)Nc1ccc(F)c(C(=O)c2c[nH]c3ncc(-c4ccc(Cl)cc4)cc23)c1F + COc1c(OCCCN2CCOCC2)ccc2c3n(c(=NC(=O)c4cnc(N)nc4)nc12)CCN3
[1]
  IC50: > 10000 nM
[2]
  IC50: > 10000 nM
[3]
  IC50: > 10000 nM
[4]
  IC50: < 31.6 nM
[5]
  IC50: < 31.6 nM
[6]
  IC50: < 31.6 nM
[7]
  viability, T/C: 104%
[8]
  viability, T/C: 86.9%
[9]
  viability, T/C: 110%
[10]
  viability, T/C: 94.1%
[11]
  viability, T/C: 69.5%
[12]
  viability, T/C: 56.8%
[13]
  viability, T/C: 98.3%
[14]
  viability, T/C: 86.2%
[15]
  viability, T/C: 83.4%
[16]
  viability, T/C: 92.4%
[17]
  viability, T/C: 87.4%
[18]
  viability, T/C: 51.3%
[19]
  viability, T/C: 66.8%
[20]
  viability, T/C: 77%
[21]
  viability, T/C: 73.9%
[22]
  viability, T/C: 62.5%
[23]
  viability, T/C: 57.5%
[24]
  viability, T/C: 52.2%
[25]
  viability, T/C: 38%
[26]
  viability, T/C: 42.6%
[27]
  viability, T/C: 36.4%
[28]
  viability, T/C: 39.8%
[29]
  viability, T/C: 31.6%
[30]
  viability, T/C: 33.7%
[31]
  viability, T/C: 14.9%
[32]
  viability, T/C: 22.1%
[33]
  viability, T/C: 18.3%
[34]
  viability, T/C: 16.1%
[35]
  viability, T/C: 18.8%
[36]
  viability, T/C: 20.5%
[37]
  viability, T/C: 5.53%
[38]
  viability, T/C: 9.03%
[39]
  viability, T/C: 6.15%
[40]
  viability, T/C: 2.77%
[41]
  viability, T/C: 4.64%
[42]
  viability, T/C: 6.82%

## Cc1nc(NC(=O)N2CCCC2C(N)=O)sc1-c1ccnc(C(C)(C)C(F)(F)F)c1 (configuration not stated)
Compound 0.0316 µM
  viability, T/C: 97.8% [middle of 8 runs]
Compound 0.1 µM
  viability, T/C: 96.2% [middle of 8 runs]
Compound 1 µM
  viability, T/C: 97.6% [middle of 8 runs]
Compound 3.16 µM
  viability, T/C: 77% [middle of 7 runs]
Compound 10 µM
  viability, T/C: 39.9% [middle of 8 runs]
Compound alone, run of 04/24/2023
  IC50: 7.37 µM [middle of 8 runs]

## C[C@@H](NC(=O)c1ncnc(N)c1Cl)c1ncc(C(=O)Nc2cc(C(F)(F)F)c(Cl)cn2)s1 + COc1c(OCCCN2CCOCC2)ccc2c3n(c(=NC(=O)c4cnc(N)nc4)nc12)CCN3
[1]
  IC50: > 10000 nM
[2]
  IC50: > 10000 nM
[3]
  IC50: > 10000 nM
[4]
  IC50: < 31.6 nM
[5]
  IC50: < 31.6 nM
[6]
  IC50: < 31.6 nM
[7]
  viability, T/C: 92.7%
[8]
  viability, T/C: 82.9%
[9]
  viability, T/C: 97.8%
[10]
  viability, T/C: 106%
[11]
  viability, T/C: 77.7%
[12]
  viability, T/C: 86.6%
[13]
  viability, T/C: 93.5%
[14]
  viability, T/C: 90.5%
[15]
  viability, T/C: 76.2%
[16]
  viability, T/C: 78.5%
[17]
  viability, T/C: 86.1%
[18]
  viability, T/C: 85%
[19]
  viability, T/C: 66.1%
[20]
  viability, T/C: 71.2%
[21]
  viability, T/C: 55.1%
[22]
  viability, T/C: 61.7%
[23]
  viability, T/C: 65.4%
[24]
  viability, T/C: 68.9%
[25]
  viability, T/C: 40.3%
[26]
  viability, T/C: 32.9%
[27]
  viability, T/C: 35.5%
[28]
  viability, T/C: 38.4%
[29]
  viability, T/C: 48%
[30]
  viability, T/C: 38.3%
[31]
  viability, T/C: 11.7%
[32]
  viability, T/C: 12.6%
[33]
  viability, T/C: 17.4%
[34]
  viability, T/C: 16%
[35]
  viability, T/C: 14.6%
[36]
  viability, T/C: 20.3%
[37]
  viability, T/C: 4.16%
[38]
  viability, T/C: 8.23%
[39]
  viability, T/C: 6.02%
[40]
  viability, T/C: 4.08%
[41]
  viability, T/C: 4.3%
[42]
  viability, T/C: 7.55%

## CC(C)NCC(C(=O)N1CCN(c2ncnc3c2C(C)CC3O)CC1)c1ccc(Cl)cc1 (configuration not stated) + COc1c(OCCCN2CCOCC2)ccc2c3n(c(=NC(=O)c4cnc(N)nc4)nc12)CCN3
[1]
  IC50: 5280 nM
[2]
  IC50: 1600 nM
[3]
  IC50: 324 nM
[4]
  IC50: < 31.6 nM
[5]
  IC50: < 31.6 nM
[6]
  IC50: < 31.6 nM
[7]
  viability, T/C: 92.8%
[8]
  viability, T/C: 71%
[9]
  viability, T/C: 74.3%
[10]
  viability, T/C: 64.8%
[11]
  viability, T/C: 50.7%
[12]
  viability, T/C: 45.9%
[13]
  viability, T/C: 90.7%
[14]
  viability, T/C: 74.2%
[15]
  viability, T/C: 64%
[16]
  viability, T/C: 53.6%
[17]
  viability, T/C: 45.3%
[18]
  viability, T/C: 38.8%
[19]
  viability, T/C: 69.8%
[20]
  viability, T/C: 70.9%
[21]
  viability, T/C: 50.1%
[22]
  viability, T/C: 45.2%
[23]
  viability, T/C: 40.6%
[24]
  viability, T/C: 38.3%
[25]
  viability, T/C: 46.5%
[26]
  viability, T/C: 40.7%
[27]
  viability, T/C: 34.3%
[28]
  viability, T/C: 30.4%
[29]
  viability, T/C: 30.2%
[30]
  viability, T/C: 26.1%
[31]
  viability, T/C: 17.6%
[32]
  viability, T/C: 18.4%
[33]
  viability, T/C: 16%
[34]
  viability, T/C: 17.4%
[35]
  viability, T/C: 15.1%
[36]
  viability, T/C: 15.6%
[37]
  viability, T/C: 5.88%
[38]
  viability, T/C: 5.08%
[39]
  viability, T/C: 4.99%
[40]
  viability, T/C: 5.31%
[41]
  viability, T/C: 4.66%
[42]
  viability, T/C: 6.36%
